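Cultured in 96-well plates, cells were exposed to test compound for 48 hours across five concentrations. At the TGI there is no net growth.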
Legend:
Test in all cases: NCI-60 cell line screen, 48 h
MDA-N = system: MDA-N
PC-3 prostate = system: PC-3 prostate
SF-295 CNS = system: SF-295 CNS
DU-145 prostate = system: DU-145 prostate
A549 NSCLC = system: A549 NSCLC
SF-539 CNS = system: SF-539 CNS
IGROV1 ovarian = system: IGROV1 ovarian
RPMI-8226 leukemia = system: RPMI-8226 leukemia
HCT-15 colon = system: HCT-15 colon
SK-OV-3 ovarian = system: SK-OV-3 ovarian
MALME-3M melanoma = system: MALME-3M melanoma

Row | Compound | TGI (MDA-N) | TGI (PC-3 prostate) | TGI (SF-295 CNS) | TGI (DU-145 prostate) | TGI (A549 NSCLC) | TGI (SF-539 CNS) | TGI (IGROV1 ovarian) | TGI (RPMI-8226 leukemia) | TGI (HCT-15 colon) | TGI (SK-OV-3 ovarian) | TGI (MALME-3M melanoma)
1 | O=C1NC(N/N=C/C(O)C(O)C(O)C(O)CO)=N/C1=C\c1cccs1 (stereo unspecified) | > 100 µM | > 100 µM | > 100 µM | > 100 µM | > 100 µM | > 100 µM | > 100 µM | > 100 µM | > 100 µM | > 100 µM | > 100 µM
2 | CCOC(=O)/C=C/[C@H](O[Si](c1ccccc1)(c1ccccc1)c1ccccc1)C(C)(C)C | > 31.6 µM | > 31.6 µM | > 31.6 µM | > 31.6 µM | > 31.6 µM | > 31.6 µM | > 31.6 µM | > 29 µM | > 31.6 µM | > 31.6 µM | > 31.6 µM
3 | O=C(/C=C/c1ccc(Cl)c(Cl)c1)CCN1CCN(CCC(=O)/C=C/c2ccc(Cl)c(Cl)c2)CC1 | – | 57.1 µM | 46.5 µM | 54.4 µM | > 100 µM | 30.7 µM | 49 µM | > 100 µM | 34.1 µM | > 100 µM | –
4 | COc1ccccc1/C=C1/Sc2scc(CC(=O)Nc3ccccc3)[n+]2C1=O | 69.9 µM | 93.3 µM | > 100 µM | > 100 µM | > 100 µM | > 100 µM | > 100 µM | – | > 100 µM | 71.7 µM | –
5 | CO/N=C1/C(n2[nH]c(=O)n(-c3ccccc3)c2=O)C2C=CC1n1c(=O)n(-c3ccccc3)c(=O)n12 (stereo unspecified) | > 100 µM | > 100 µM | – | > 100 µM | > 100 µM | > 100 µM | > 100 µM | > 100 µM | > 100 µM | > 100 µM | > 100 µM
6 | N#C[C@](CO)(NC(=O)OCc1ccccc1)C(F)F | – | > 100 µM | > 100 µM | > 100 µM | > 100 µM | – | > 100 µM | > 100 µM | > 100 µM | > 100 µM | > 100 µM
7 | Cc1cc2nc3c(C(O)CO)nn(-c4ccccc4)c3nc2cc1C (stereo unspecified) | 40.6 µM | 32.7 µM | 35.7 µM | 33.1 µM | 48.5 µM | 50.2 µM | 43.9 µM | > 100 µM | 42.6 µM | – | –
8 | CCOC(=O)c1ccc(Nc2nc3ccc(C(F)(F)F)cc3nc2-c2ccccc2)cc1 | – | > 100 µM | > 100 µM | > 100 µM | > 100 µM | > 100 µM | > 100 µM | > 100 µM | > 100 µM | – | > 100 µM
9 | COc1cc(/C=C/C(=O)O)ccc1O | > 100 µM | > 100 µM | > 100 µM | > 100 µM | > 100 µM | > 100 µM | > 100 µM | > 100 µM | > 100 µM | – | > 100 µM
10 | c1ccc2c(Cc3c[nH]c4ccccc34)c[nH]c2c1 | 41.5 µM | 38.3 µM | 43.8 µM | 34.6 µM | 57 µM | – | 30.7 µM | 68.8 µM | > 100 µM | 51 µM | 51 µM
11 | C=C(Br)C(Cl)(CBr)CCC(Br)C(C)(C)Cl (stereo unspecified) | > 10 µM | > 10 µM | > 10 µM | > 10 µM | > 10 µM | > 10 µM | > 10 µM | > 10 µM | – | > 10 µM | –
12 | COc1ccc(/C=N/n2c(Cc3ccc(Cl)cc3)n[nH]c2=O)cc1 | > 100 µM | > 100 µM | 49.9 µM | > 100 µM | > 100 µM | > 100 µM | 48 µM | > 100 µM | > 100 µM | > 100 µM | –
13 | CCOP(=O)(OCC)C(Cc1ccccc1)N=C(c1ccccc1)c1ccccc1 (stereo unspecified) | 29.1 µM | 16.8 µM | 25.8 µM | 36.3 µM | 24.2 µM | – | 26.8 µM | > 100 µM | 25 µM | 28.5 µM | 40.9 µM
14 | CSc1cc(Cl)c(C)cc1S(=O)(=O)NC(=O)NNc1ccccn1 | > 100 µM | > 100 µM | > 100 µM | > 100 µM | > 100 µM | > 100 µM | > 100 µM | – | > 100 µM | > 100 µM | > 100 µM
15 | CCOC(=O)c1c(NC(=O)c2ccccc2)sc2c1CCC2 | > 100 µM | > 100 µM | > 100 µM | > 100 µM | > 100 µM | > 100 µM | > 100 µM | > 100 µM | > 100 µM | – | –
16 | COc1cc(/C=C2\CCc3cc(OC)c(OC)cc3C2=O)cc(OC)c1 | – | > 100 µM | > 25.1 µM | 78.5 µM | > 100 µM | > 31 µM | > 100 µM | > 60.1 µM | > 44.3 µM | > 100 µM | > 100 µM
17 | O=S(=O)(NC(c1ccccc1)(c1cc2ccccc2[nH]1)c1cc2ccccc2n1S(=O)(=O)c1ccccc1)c1ccccc1 (stereo unspecified) | – | > 100 µM | > 100 µM | > 100 µM | > 100 µM | – | > 100 µM | > 100 µM | > 100 µM | 92.4 µM | > 100 µM
18 | CCO[C@H]1C[C@@H](c2ccccc2)[C@]2(C)C[C@H](C(=O)OC)ON2O1 | > 100 µM | > 100 µM | > 100 µM | > 100 µM | > 100 µM | > 100 µM | > 100 µM | > 100 µM | > 100 µM | – | > 100 µM
19 | OCCCN(CCc1ccc(Cl)c(Cl)c1)CCN1CCCC1 | 42.7 µM | > 100 µM | > 100 µM | > 100 µM | > 100 µM | – | > 100 µM | 70.6 µM | > 100 µM | > 100 µM | 41.5 µM
20 | COC(=O)[C@H]1ON2O[C@@H](O[C@H]3CCCC[C@@H]3C(C)(C)c3ccccc3)C[C@@H]3CC[C@H]1[C@@]32C | > 100 µM | – | > 100 µM | > 100 µM | > 100 µM | – | > 100 µM | > 100 µM | > 100 µM | > 100 µM | –
21 | N#Cc1nsnc1-c1nc(-c2nsnc2C#N)nc(-c2nsnc2C#N)n1 | > 100 µM | > 100 µM | > 100 µM | > 100 µM | – | > 100 µM | > 100 µM | > 100 µM | > 100 µM | – | > 100 µM
22 | CCOC(=O)NC(N(C)C(C(C)C)P(=O)(OCC)OCC)(C(F)(F)F)C(F)(F)F (stereo unspecified) | > 100 µM | > 100 µM | > 100 µM | > 100 µM | > 100 µM | > 100 µM | > 100 µM | > 100 µM | > 100 µM | – | > 100 µM
